According to US9555038B2, “Heterocycle-substituted tetracyclic compounds and methods of use thereof for the treatment of viral diseases” (Merck Sharp & Dohme Corp., priority 2013, dated 2017):
Like-named read-outs stand apart in the source and are kept apart here.

Legend:
[1] = test system: HCV replicon 1A; assay: Cell-based HCV Replicon Assay A, replicon 1A
Procedure, shortened: (§1)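 Three-day exposure of replicon cells (2000/well) to serially diluted compound, 0.5% DMSO, 5% serum. RNA per cell was derived as (Ct − intercept)/slope from replicon total RNA standards, with cyclophilin amplified in the same reaction.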

[2] = test system: HCV replicon 1AY93H; assay: Cell-based HCV Replicon Assay A, replicon 1AY93H
Procedure, shortened: as §1

[3] = test system: HCV replicon 1AQ30D; assay: Cell-based HCV Replicon Assay B, replicon 1AQ30D
Procedure, shortened: (§2)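 EC50 defined as the drug concentration giving a CT increase of 1 above projected baseline, from real-time RT-PCR of replicon RNA using genotype-specific primers and probes. Cells were seeded in 5% FBS, dosed after 24 h and incubated 3 days before lysis.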

[4] = test system: HCV replicon 1B; assay: Cell-based HCV Replicon Assay B, replicon 1B
Procedure, shortened: as §2

[5] = test system: HCV replicon 2B; assay: Cell-based HCV Replicon Assay A, replicon 2B
Procedure, shortened: as §1

[6] = read-out: 1A Y93H IC50, replicon 1AY93H
[7] = Hepatitis C virus, read-out: 1A Q30D IC50 (nM), replicon 1AQ30D
[8] = replicon 1AY93H, read-out: 1A Y93H IC50
[9] = replicon 1AQ30D, read-out: 1A Q30D IC50
[10] = Hepatitis C virus, read-out: 1A Y93H IC50 (nM), replicon 1AY93H
[11] = Hepatitis C virus, read-out: 2B IC50 (nM), replicon 2B
[12] = read-out: 1A Q30D IC50, replicon 1AQ30D

Row | SMILES | IC50 ([1]; Hepatitis C virus) [pM] | IC50 [2, 6] [nM] | IC50 [3, 7] [nM] | IC50 ([4]; Hepatitis C virus) [pM] | IC50 ([5]; read-out: 2B IC50, replicon 2B) [nM] | IC50 [1] [pM] | IC50 [2, 8] [nM] | IC50 [3, 9] [nM] | IC50 [4] [pM] | IC50 ([5]; replicon 2B, read-out: 2B IC50) [nM] | IC50 [2, 10] [nM] | IC50 [5, 11] [nM] | IC50 [3, 12] [nM]
1 | COC(=O)N[C@H](C(=O)N1CCC[C@H]1c1ncc(-c2cc(F)c3c(c2)OC(c2cnc(-c4ccc(F)cc4)s2)n2c-3cc3cc(-c4cnc([C@@H]5CCCN5C(=O)[C@@H](NC(=O)OC)C(C)C)[nH]4)ccc32)[nH]1)C(C)C (single isomer, unassigned) [Compound 31] | 1.2 | 0.0063 | 0.046 | 1 | 0.004 | – | – | – | – | – | – | – | –
2 | COC(=O)NC(C(=O)N1[C@@H]2C[C@@H]2C[C@H]1c1ncc(-c2ccc3c(c2)cc2n3C(c3cnc(CC(C)C)s3)Oc3cc(-c4cnc([C@@H]5CCCN5C(=O)[C@@H](NC(=O)OC)C(C)C)[nH]4)cc(F)c3-2)[nH]1)C1CCOC(C)(C)C1 (single isomer, unassigned) [Compound 439] | – | – | – | – | – | 2.7 | 0.004 | 0.018 | 2.1 | 0.006 | – | – | –
3 | COC(=O)N[C@H](C(=O)N1CCC[C@H]1c1ncc(-c2cc(F)c3c(c2)OC(c2cnc(C)s2)n2c-3cc3cc(-c4cnc([C@@H]5CCCN5C(=O)[C@@H](NC(=O)OC)C(C)C)[nH]4)ccc32)[nH]1)C(C)C (mixture of isomers) [Compound 416] | 2.2 | – | 1.77 | 3 | – | – | – | – | – | – | 0.085 | 0.119 | –
4 | COC(=O)N[C@H](C(=O)N1CCC[C@H]1c1ncc(-c2cc(F)c3c(c2)OC(c2cnc(CC(C)(C)C)s2)n2c-3cc3cc(-c4cnc([C@@H]5CCCN5C(=O)[C@@H](NC(=O)OC)C(C)C)[nH]4)ccc32)[nH]1)C(C)C (single isomer, unassigned) [Compound 522] | – | – | – | – | – | 1.4 | 0.011 | 0.163 | 1 | 0.015 | – | – | –
5 | COC(=O)N[C@H](C(=O)N1CCC[C@H]1c1ncc(-c2cc(C)c3c(c2)OC(c2cnc(C4CC4)s2)n2c-3cc3cc(-c4cnc([C@@H]5CCCN5C(=O)[C@@H](NC(=O)OC)C(C)C)[nH]4)ccc32)[nH]1)C(C)C (single isomer, unassigned) [Compound 200] | 4.9 | – | 0.961 | 3 | – | – | – | – | – | – | 0.0796 | 0.014 | –
6 | COC(=O)N[C@H](C(=O)N1CCC[C@H]1c1ncc(-c2cc(F)c3c(c2)OC(c2cnc(C4CC4)s2)n2c-3cc3cc(-c4cnc([C@@H]5C[C@H]6C[C@H]6N5C(=O)[C@@H](NC(=O)OC)C(C)C)[nH]4)ccc32)[nH]1)C(C)C (single isomer, unassigned) [Compound 300] | – | 0.0041 | – | 3 | 0.011 | 3 | – | – | – | – | – | – | 0.066
7 | COC(=O)NC(C(=O)N1[C@@H]2C[C@@H]2C[C@H]1c1ncc(-c2ccc3c(c2)cc2n3C(c3cnc(C4(C)CCCC4)s3)Oc3cc(-c4cnc([C@@H]5CCCN5C(=O)[C@@H](NC(=O)OC)C(C)C)[nH]4)cc(F)c3-2)[nH]1)C1C[C@@H](C)O[C@@H](C)C1 (single isomer, unassigned) [Compound 473] | 2.6 | 0.002 | 0.011 | 2.8 | 0.01 | – | – | – | – | – | – | – | –
8 | COC(=O)NC(C(=O)N1CCC[C@H]1c1ncc(-c2ccc3c(c2)cc2n3C(c3cnc(CC(C)C)s3)Oc3cc(-c4cnc([C@@H]5CCCN5C(=O)[C@@H](NC(=O)OC)C(C)C)[nH]4)cc(F)c3-2)[nH]1)C1C[C@@H](C)O[C@@H](C)C1 (single isomer, unassigned) [Compound 547] | – | 0.005 | 0.028 | 1.8 | 0.006 | 2.8 | – | – | – | – | – | – | –
9 | COC(=O)N[C@H](C(=O)N1CCC[C@H]1c1ncc(-c2cc(C)c3c(c2)OC(c2ncc(C4CC4)s2)n2c-3cc3cc(-c4cnc([C@@H]5CCCN5C(=O)[C@@H](NC(=O)OC)C5C[C@@H](C)O[C@@H](C)C5)[nH]4)ccc32)[nH]1)C(C)C (single isomer, unassigned) [Compound 47] | 2 | 1.12 | – | 3 | 0.058 | – | – | – | – | – | – | – | 2.19
10 | CCc1ncc(C2Oc3cc(-c4cnc([C@@H]5CCCN5C(=O)[C@@H](NC(=O)OC)C(C)C)[nH]4)cc(F)c3-c3cc4cc(-c5cnc([C@@H]6C[C@H]7C[C@H]7N6C(=O)[C@@H](NC(=O)OC)C6C[C@@H](C)O[C@@H](C)C6)[nH]5)ccc4n32)s1 (single isomer, unassigned) [Compound 96] | 2.4 | 0.0037 | – | 3 | 0.006 | – | – | – | – | – | – | – | 0.02
11 | COC(=O)NC(C(=O)N1[C@@H]2C[C@@H]2C[C@H]1c1ncc(-c2ccc3c(c2)cc2n3C(c3cnc(C4CCCC4)s3)Oc3cc(-c4cnc([C@@H]5CCCN5C(=O)[C@@H](NC(=O)OC)C(C)C)[nH]4)cc(F)c3-2)[nH]1)C1CCOC(C)(C)C1 (single isomer, unassigned) [Compound 321] | 2.9 | 0.0019 | – | 3 | 0.004 | – | – | – | – | – | – | – | 0.007
12 | COC(=O)N[C@H](C(=O)N1CCC[C@H]1c1ncc(-c2cc(F)c3c(c2)OC(c2cnc(-c4ccc(Cl)cc4)s2)n2c-3cc3cc(-c4cnc([C@@H]5CCCN5C(=O)[C@@H](NC(=O)OC)C(C)C)[nH]4)ccc32)[nH]1)C(C)C (single isomer, unassigned) [Compound 53] | 1.6 | 0.0022 | 0.07 | 1 | 0.004 | – | – | – | – | – | – | – | –
13 | COC(=O)N[C@H](C(=O)N1CCC[C@H]1c1ncc(-c2cc(F)c3c(c2)OC(c2ncc(-c4ccc(C#N)cc4)s2)n2c-3cc3cc(-c4cnc([C@@H]5CCCN5C(=O)[C@@H](NC(=O)OC)C(C)C)[nH]4)ccc32)[nH]1)C(C)C (single isomer, unassigned) [Compound 43] | 2.3 | 0.0081 | – | 2 | 0.004 | – | – | – | – | – | – | – | 0.077
14 | CCc1ncc(C2Oc3cc(-c4cnc([C@@H]5CCCN5C(=O)[C@@H](NC(=O)OC)C(C)C)[nH]4)cc(F)c3-c3cc4cc(-c5cnc([C@@H]6C[C@H]7C[C@H]7N6C(=O)C(NC(=O)OC)C6CCOC(C)(C)C6)[nH]5)ccc4n32)s1 (single isomer, unassigned) [Compound 92] | 3.7 | 0.0045 | – | 6 | 0.005 | – | – | – | – | – | – | – | 0.064
15 | COC(=O)N[C@H](C(=O)N1CCC[C@H]1c1ncc(-c2cc(F)c3c(c2)OC(c2cnc(C4CC4)s2)n2c-3cc3cc(-c4cnc([C@@H]5CC6(C)CC6N5C(=O)[C@@H](NC(=O)OC)C(C)C)[nH]4)ccc32)[nH]1)C(C)C (single isomer, unassigned) [Compound 518] | – | – | – | – | – | 2.5 | 0.016 | 0.099 | 2.4 | 0.015 | – | – | –
16 | CCc1ncc(C2Oc3cc(-c4cnc([C@@H]5CCCN5C(=O)[C@@H](NC(=O)OC)C(C)C)[nH]4)cc(F)c3-c3cc4cc(-c5cnc([C@@H]6C[C@H]7C[C@H]7N6C(=O)C(NC(=O)OC)C6CCOC(C)(C)C6)[nH]5)ccc4n32)s1 (single isomer, unassigned) [Compound 93] | – | 0.0426 | – | – | 0.069 | 3.6 | – | – | 3 | – | – | – | 0.631
17 | COC(=O)N[C@H](C(=O)N1CCC[C@H]1c1ncc(-c2cc(F)c3c(c2)OC(c2cnc(C4(C)CC4)s2)n2c-3cc3cc(-c4cnc([C@@H]5C[C@H]6C[C@H]6N5C(=O)[C@@H](NC(=O)OC)C(C)C)[nH]4)ccc32)[nH]1)C(C)C (single isomer, unassigned) [Compound 453] | – | 0.21 | – | – | 0.65 | 2.3 | – | – | 2 | – | – | – | 2.14
18 | COC(=O)N[C@H](C(=O)N1CCC[C@H]1c1ncc(-c2cc(F)c3c(c2)OC(c2cnc(-c4ccc(OC(F)(F)F)cc4)s2)n2c-3cc3cc(-c4cnc([C@@H]5CCCN5C(=O)[C@@H](NC(=O)OC)C(C)C)[nH]4)ccc32)[nH]1)C(C)C (single isomer, unassigned) [Compound 78] | – | 0.165 | – | – | 0.193 | 1.4 | – | – | 1 | – | – | – | 1.86
19 | CCCc1ncc(C2Oc3cc(-c4cnc([C@@H]5CCCN5C(=O)[C@@H](NC(=O)OC)C(C)C)[nH]4)cc(F)c3-c3cc4cc(-c5cnc([C@@H]6CCCN6C(=O)C(NC(=O)OC)C6CCOC(C)(C)C6)[nH]5)ccc4n32)s1 (single isomer, unassigned) [Compound 61] | – | 0.012 | – | – | 0.006 | 3.3 | – | – | 1.7 | – | – | – | 0.07
20 | COC(=O)NC(C(=O)N1[C@@H]2C[C@@H]2C[C@H]1c1ncc(-c2ccc3c(c2)cc2n3C(c3cnc(CC(C)C)s3)Oc3cc(-c4cnc([C@@H]5CCCN5C(=O)[C@@H](NC(=O)OC)C(C)C)[nH]4)cc(F)c3-2)[nH]1)C1C[C@@H](C)O[C@@H](C)C1 (single isomer, unassigned) [Compound 440] | 2.3 | 0.146 | – | 3.6 | 0.32 | – | – | – | – | – | – | – | 0.967
21 | COC(=O)N[C@H](C(=O)N1CCC[C@H]1c1ncc(-c2cc(F)c3c(c2)OC(c2cnc(C4CC4)s2)n2c-3c(F)c3cc(-c4cnc([C@@H]5CCCN5C(=O)[C@@H](NC(=O)OC)C5CCOCC5)[nH]4)ccc32)[nH]1)C(C)C (single isomer, unassigned) [Compound 42] | – | 0.0141 | – | – | 0.017 | 1.6 | – | – | 2 | – | – | – | 0.123
